The record followed here is patent US20130225517A1, “Therapeutic Compounds” (University of Iowa Research Foundation, priority 2012, published 2013).

pIC50: −log10 of the molar value. Like-named read-outs stand apart in the source and are kept apart here.

Experiment [1] addresses T1, Dnmt1 (Homo sapiens, UniProt P26358). Nature of the experiment: Glal restriction endonuclease-coupled DNA methylation assay (Test A). The class given is biochemical. The conditions noted are these: for IC50: Table 1, Glal restriction endonuclease-coupled DNA methylation assay, read-out: IC50 (μM), Dnmt1 inhibition activity. The source says: A Glal restriction endonuclease-coupled DNA methylation assay was used to assess Dnmt1 activity (Syeda et al, J Biol Chem 2011, 286, 15344-15351). Upon methylation of the DNA substrate by Dnmt1, the DNA substrate is cleaved by Glal, freeing a 5′ fluorophore from the 3′ quencher, and generating a fluorescence signal. Inhibition of Dnmt1 results in a loss of fluorescence generation.
A Glal restriction endonuclease-coupled DNA methylation assay to assess Dnmt1 activity (Syeda et al, J Biol Chem 2011, 286, 15344-15351). Upon methylation of the DNA substrate by Dnmt1, the DNA substrate is cleaved by Glal, freeing a 5′ fluorophore from the 3′ quencher, and generating a fluorescence signal. Inhibition of Dnmt1 results in a loss of fluorescence generation.
First, laccaic acid was screened against the methyl-specific restriction endonuclease Glal (SibEnzyme, West Roxbury, Mass.) to ensure that the compound was not inhibiting Glal rather than Dnmt1. […] Increasing concentrations of laccaic acid A were used in the endonuclease-coupled DNA methylation assay to determine an IC50 value for the compound. […] Lastly, differential scanning fluorimetry was used to determine if laccaic acid A was a direct binder of Dnmt1 in the absence of the DNA or S-adenosyl methionine substrate.

The subject of experiment [2] is methyl-specific restriction endonuclease Glal. Nature of the experiment: Counter-screen against methyl-specific restriction endonuclease Glal. It counts as biochemical. The conditions noted are these: under all conditions tested. How it is done:
(§1) Laccaic acid A was further validated as a Dnmt1 inhibitor in three assays. First, laccaic acid was screened against the methyl-specific restriction endonuclease Glal (SibEnzyme, West Roxbury, Mass.) to ensure that the compound was not inhibiting Glal rather than Dnmt1. Under all conditions tested, Glal had full activity in the presence of laccaic acid A. Next, the concentration dependence of laccaic acid A inhibition on Dnmt1 activity was assessed. Increasing concentrations of laccaic acid A were used in the endonuclease-coupled DNA methylation assay to determine an IC50 value for the compound. Laccaic acid A was determined to have an IC50 value of 400 nM. […] Lastly, differential scanning fluorimetry was used to determine if laccaic acid A was a direct binder of Dnmt1 in the absence of the DNA or S-adenosyl methionine substrate.
For orientation: Counterscreens check selectivity or assay interference.

In experiment [3] the target is T1, Dnmt1. Briefly: Differential scanning fluorimetry, direct binding to Dnmt1. The conditions noted are these: increase from 44° C.; absence of the DNA or S-adenosyl methionine substrate. On the procedure: as §1
On the technique in general: In DSF a fluorescence change marks the thermal transition of the protein.

T1 sequence (P26358 whole entry): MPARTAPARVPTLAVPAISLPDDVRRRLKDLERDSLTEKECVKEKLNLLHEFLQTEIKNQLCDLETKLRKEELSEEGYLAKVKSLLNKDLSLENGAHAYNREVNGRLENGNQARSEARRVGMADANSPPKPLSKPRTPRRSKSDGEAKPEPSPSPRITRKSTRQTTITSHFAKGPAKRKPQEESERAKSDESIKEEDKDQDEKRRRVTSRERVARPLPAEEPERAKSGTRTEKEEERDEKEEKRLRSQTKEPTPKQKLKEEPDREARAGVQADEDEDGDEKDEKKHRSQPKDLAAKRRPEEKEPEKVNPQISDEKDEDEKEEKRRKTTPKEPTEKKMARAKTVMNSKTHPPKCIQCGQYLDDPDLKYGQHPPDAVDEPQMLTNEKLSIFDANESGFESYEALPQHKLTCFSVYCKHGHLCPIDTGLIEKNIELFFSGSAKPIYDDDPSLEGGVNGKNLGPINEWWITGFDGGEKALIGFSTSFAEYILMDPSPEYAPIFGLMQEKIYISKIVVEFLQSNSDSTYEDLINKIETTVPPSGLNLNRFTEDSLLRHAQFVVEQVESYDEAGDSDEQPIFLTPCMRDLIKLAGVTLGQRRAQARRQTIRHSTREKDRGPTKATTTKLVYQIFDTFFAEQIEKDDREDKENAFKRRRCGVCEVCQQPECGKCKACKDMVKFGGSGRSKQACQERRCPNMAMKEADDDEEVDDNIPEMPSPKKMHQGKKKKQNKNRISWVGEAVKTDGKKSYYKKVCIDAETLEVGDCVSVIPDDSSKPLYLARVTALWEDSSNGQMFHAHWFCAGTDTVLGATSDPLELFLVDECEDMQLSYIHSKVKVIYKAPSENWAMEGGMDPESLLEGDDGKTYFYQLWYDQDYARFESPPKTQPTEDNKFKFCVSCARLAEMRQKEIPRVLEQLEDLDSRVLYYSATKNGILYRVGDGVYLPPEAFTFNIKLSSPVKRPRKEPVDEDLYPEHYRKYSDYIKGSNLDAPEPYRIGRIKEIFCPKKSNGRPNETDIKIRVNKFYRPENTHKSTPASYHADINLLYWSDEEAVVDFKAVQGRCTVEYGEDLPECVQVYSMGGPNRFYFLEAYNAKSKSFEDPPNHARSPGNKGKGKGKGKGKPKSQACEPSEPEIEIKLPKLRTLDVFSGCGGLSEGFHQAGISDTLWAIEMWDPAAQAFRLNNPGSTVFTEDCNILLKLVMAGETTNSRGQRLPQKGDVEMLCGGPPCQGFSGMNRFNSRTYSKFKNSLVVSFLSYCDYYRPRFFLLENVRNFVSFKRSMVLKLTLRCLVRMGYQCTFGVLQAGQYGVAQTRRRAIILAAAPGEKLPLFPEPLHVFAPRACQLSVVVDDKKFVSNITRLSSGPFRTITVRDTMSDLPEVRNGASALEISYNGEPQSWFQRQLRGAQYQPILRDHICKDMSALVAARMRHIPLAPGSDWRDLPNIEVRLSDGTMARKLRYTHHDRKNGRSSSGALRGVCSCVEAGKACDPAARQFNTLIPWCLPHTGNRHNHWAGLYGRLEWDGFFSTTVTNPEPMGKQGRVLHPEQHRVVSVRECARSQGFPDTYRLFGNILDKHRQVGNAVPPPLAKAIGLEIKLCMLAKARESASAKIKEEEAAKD

As a reminder, the IC50 is the point on the concentration scale where inhibition reaches its midpoint. On to `O=C(O)C(S)C(S)C(=O)O` (centres unmarked) [IX, 2,3-Dimercaptosuccinic Acid, reference compound], for which the IC50 at Dnmt1 [1] is 0.33 µM.
The same measure, in the same setting: the figure for `O=c1c(O)c(-c2ccc(O)c(O)c2)oc2c(O)c(O)cc(O)c12` [VII, Gossypetin] is 2.9 µM.
On to `Oc1cc(Cl)ccc1Oc1ccc(Cl)cc1Cl` [III, Triclosan, reference compound], for which the IC50 at Dnmt1 [1] worked out at 3.8 µM.
Same read-out and setting: the figure for `O=C1c2ccccc2C(=O)c2c1ccc(O)c2O` [VI, Alizarin] is 11 µM; for `O=C(O)c1cc(O)c2c(c1)[C@@H]([C@H]1c3cc(C(=O)O)cc(O)c3C(=O)c3c(O[C@H]4O[C@H](CO)[C@@H](O)[C@H](O)[C@H]4O)cccc31)c1cccc(O[C@H]3O[C@H](CO)[C@@H](O)[C@H](O)[C@H]3O)c1C2=O` [IV, Sennoside A, reference compound] it is 0.45 µM.
In general, pIC50 refers to −log10 of the IC50, conventionally taken in molar units. Turning to `CC(=O)NCCc1ccc(O)c(-c2c(O)c(O)c3c(c2O)C(=O)c2c(cc(O)c(C(=O)O)c2C(=O)O)C3=O)c1` [II, Laccaic Acid A], the IC50 on Dnmt1 [1] was 2.1 µM. Further, at Dnmt1 [1] (increasing concentrations in the endonuclease-coupled DNA methylation assay, read-out: IC50 value, inhibition of Dnmt1 activity), the pIC50 is 6.40. Besides, at Dnmt1 [1] (ratio of IC50 values, versus SG14027), the “fold more potent at inhibition of Dnmt1 than SG14027” value is on record as 5 fold. In addition, the “outcome of high throughput screen for inhibitors of Dnmt1 activity” value on Dnmt1 [1] (screen of the Spectrum collection (Microsource)) is listed as “hit”. Also, the “Glal activity in the presence of compound” value in experiment [2] was “full activity”. The “observed melting temperature of Dnmt1 after addition of compound” value on Dnmt1 [3] came to 45.7 °C.
In the case of `O=C(O)c1cc(O)c2c(c1)[C@@H]([C@@H]1c3cc(C(=O)O)cc(O)c3C(=O)c3c(O[C@H]4O[C@H](CO)[C@@H](O)[C@H](O)[C@H]4O)cccc31)c1cccc(O[C@H]3O[C@H](CO)[C@@H](O)[C@H](O)[C@H]3O)c1C2=O` [V, Sennoside B, reference compound], the IC50 on Dnmt1 [1] worked out at 0.45 µM.
Still for that read-out and setting: the figure for `CSc1nc2cc(Cl)c(Oc3cccc(Cl)c3Cl)cc2[nH]1` [XI, Triclabendazole, reference compound] is 6.1 µM; for `O=C1C=CC(=O)c2c(O)cccc21` [VIII, Juglone] it is 1.7 µM.
